Measurements published in PMC10388362, “Fluorescent Ligands Enable Target Engagement Studies for the Intracellular Allosteric Binding Site of the Chemokine Receptor CXCR2” (Journal of Medicinal Chemistry, 2023).
Several values for one entry are separate records, joined by “and”; a condition that tells them apart may be missing. Identical values can stand only once.

Key:
CCR2 = biological target: T1, CCR2 (Homo sapiens, UniProt P41597); test: Membrane-based NanoBRET saturation assay, selectivity (CCR2_GSSG_Nluc membranes)
T1 construct: host or cells: HEK293T; membrane preparation
T1 sequence (P41597 1-360 isoform P41597-2): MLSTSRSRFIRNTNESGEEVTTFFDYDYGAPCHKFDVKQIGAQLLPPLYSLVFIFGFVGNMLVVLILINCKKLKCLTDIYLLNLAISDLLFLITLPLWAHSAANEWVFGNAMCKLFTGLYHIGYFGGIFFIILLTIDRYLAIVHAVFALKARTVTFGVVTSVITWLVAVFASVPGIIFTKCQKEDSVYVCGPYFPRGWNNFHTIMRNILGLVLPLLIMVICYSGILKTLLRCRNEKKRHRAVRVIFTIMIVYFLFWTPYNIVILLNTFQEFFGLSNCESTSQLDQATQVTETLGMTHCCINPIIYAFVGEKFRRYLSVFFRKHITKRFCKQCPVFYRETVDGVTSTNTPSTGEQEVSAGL
Description: For the establishment of our NanoBRET binding assay, we referred to a recently published protocol.[45] The fluorescent ligands (9a–c) were dissolved in DMSO (1 mM) and further diluted to varying concentrations in an assay buffer (50 mM Na2HPO4, 50 mM KH2PO4, pH 7.4, 1 mg/mL saponin, 5% FBS) and 5 μL of these dilutions were pipetted to a 384-well plate. To determine the total binding, 5 μL of the assay buffer was added to the corresponding wells, while 5 μL of a solution of 3 in the assay buffer (final assay concentration: 1 μM) was used to determine nonspecific binding. Then, 20 μL of the membrane preparations diluted in the assay buffer (2 μg total protein/well) were added and the plates were incubated for 90 min at 37 °C. Subsequently, 5 μL of a furimazine solution (Promega, Mannheim, Germany, final assay dilution: 1:5000) was added to each well (final assay volume: 35 μL) before measuring luminescence with a CLARIOstar microplate reader using 620/10 and 475/30 nm emission filters after 5 min of incubation in the dark. Bioluminescence resonance energy transfer (BRET) was determined as the ratio of acceptor fluorescence and donor luminescence. […] Specific binding signals were calculated as a difference of total and nonspecific binding. If required, netBRET values were calculated as the difference between total BRET values and the values obtained in the absence of a fluorescent ligand. […]

CXCR2 = biological target: T2, CXCR2 (Homo sapiens, UniProt P25025); test: Live cell NanoBRET association and dissociation kinetic assay; assay type: binding; details: 37 °C
T2 construct: Promega pNLF1-C (Nluc) #CXCR20TN00; host or cells: HEK293T, transient transfection (PEI)
T2 sequence (P25025 1-360): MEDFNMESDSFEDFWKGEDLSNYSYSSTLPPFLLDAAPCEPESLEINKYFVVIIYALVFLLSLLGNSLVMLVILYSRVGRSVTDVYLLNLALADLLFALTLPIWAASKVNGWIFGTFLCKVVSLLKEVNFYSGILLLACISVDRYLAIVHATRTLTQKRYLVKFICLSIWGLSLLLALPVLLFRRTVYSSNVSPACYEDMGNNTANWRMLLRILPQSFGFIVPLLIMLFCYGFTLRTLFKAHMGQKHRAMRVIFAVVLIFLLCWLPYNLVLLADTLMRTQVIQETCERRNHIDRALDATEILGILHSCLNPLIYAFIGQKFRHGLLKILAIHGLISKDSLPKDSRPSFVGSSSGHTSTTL
Description: HEK293T cells were transfected with the plasmid (5.5 μg) for CXCR2_Nluc using polyethylenimine (PEI) as the transfection reagent (PEI/DNA ratio 3:1). After 24 h at 37 °C and 5% CO2, the cells were detached with DMEM and transferred to a white F-bottom 384-well plate (10,000 cells/well), which was coated with 5 μL/well poly-D-lysine (0.1 mg/mL, dissolved in water), and incubated for further 24 h at 37 °C and 5% CO2. Subsequently, the cells were washed with phosphate-buffered saline (Gibco DPBS, with CaCl2 and MgCl2). 15 μL of the assay medium (Gibco DMEM/F12, 15 mM HEPES, no phenol red supplemented with 5% FBS) and 5 μL of vivazine (final assay dilution: 1:300 in the assay buffer) were added and the cells were incubated at 37 °C for 90 min. Then, 5 μL of the fluorescent ligand (9a), diluted to varying concentrations (final assay concentrations: 10–0.5 nM in the assay medium) was transferred to a 384-well plate. For the determination of nonspecific binding, we added a solution of the fluorescent ligand (9a) and a nonlabeled competitor dissolved in the assay medium (3, final assay concentration: 10 μM) instead. BRET ratios were measured with a CLARIOstar microplate reader using 620/10 and 475/30 nm emission filters over time. The obtained data were analyzed using the association kinetics (two or more conc. of hot ligand) algorithm in PRISM9.5 (GraphPad) to determine the association kinetics.
After running the association assay in cells for at least 133 min, 1 μL of an unlabeled competitor dissolved in the assay buffer (3, final assay concentration: 10 μM) was added. For control experiments, we added 1 μL of the assay medium instead of the competitor solution. BRET ratios were measured with a CLARIOstar microplate reader using 620/10 and 475/30 nm emission filters over time. Specific BRET ratios were calculated as a difference of total and nonspecific binding. The obtained data were analyzed using the dissociation one phase exponential decay algorithm in PRISM9.5 (GraphPad) to determine the dissociation kinetics.

[1] = cells, 9a 1 nM, single determinations
[2] = cells, 9a 5 nM, single determinations
[3] = cells, 9a 10 nM, single determinations
[4] = live HEK293T cells expressing CXCR2_Nluc, mean

With `Cc1ccc([C@H](Nc2c(Nc3cccc(C(=O)NCc4cn(CCOCCOCCOCCNC(=O)c5ccc(C(=O)[O-])c(-c6c7ccc(=[N+](C)C)cc-7oc7cc(N(C)C)ccc67)c5)nn4)c3O)c(=O)c2=O)C(C)(C)C)o1` [9a, (R)-4-((2-(2-(2-(2-(4-((3-((2-((2,2-Dimethyl-1-(5-methylfuran-2-yl)propyl)amino)-3,4-dioxocyclobut-1-en-1-yl)amino)-2-hydroxybenzamido)methyl)-1H-1,2,3-triazol-1-yl)ethoxy)ethoxy)ethoxy)ethyl)carbamoyl)-2-(6-(dimethylamino)-3-(dimethyliminio)-3H-xanthen-9-yl)benzoate] as the compound, how does the “binding to CCR2” value (CCR2) read?
Its value is “no significant binding”.

And the koff (CXCR2; [1])?
The koff was 8.88e-05 s⁻¹.

What about the “koff [min-1]” value (CXCR2; [1]) of the same compound?
Its value is 0.00837 min⁻¹ and 0.00621 min⁻¹ and 0.00861 min⁻¹.

And the “tr” value (CXCR2; [1])?
The value was 187.6 min and 119.5 min and 161.1 min and 116.1 min.

What about the koff (CXCR2; [2]) of the same compound?
Its koff is 9.75e-05 s⁻¹.

What about the “koff [min-1]” value (CXCR2; [2]) of the same compound?
The value was 0.0072 min⁻¹ and 0.00855 min⁻¹ and 0.00476 min⁻¹.

What about the “tr” value (CXCR2; [2]) of the same compound?
Its value is 210.2 min and 170.9 min and 138.9 min and 117.0 min.

And the koff (CXCR2; [3])?
Its koff is 7.53e-05 s⁻¹.

What about the “koff [min-1]” value (CXCR2; [3]) of the same compound?
Its value is 0.00791 min⁻¹ and 0.00898 min⁻¹ and 0.00859 min⁻¹.

And the “tr” value (CXCR2; [3])?
The value was 221.0 min and 126.4 min and 111.4 min and 116.4 min.

What about the Kd (CXCR2; live HEK293T cells expressing CXCR2_Nluc) of the same compound?
The Kd was 200 ± 20 pM.

What about the koff (CXCR2; [4]) of the same compound?
The koff was 0.000122 s⁻¹.

And the kon (CXCR2; [4])?
Its kon is 620000 M⁻¹ s⁻¹.

What about the residence time tr (CXCR2; [4]) of the same compound?
The residence time tr was 146 ± 10 min.

What about the residence time (CXCR2; live HEK293T cells expressing CXCR2_Nluc, mean, read-out: residence time tr) of the same compound?
Its residence time is 146 min.
